Assays:
Assay type in all cases: cell-based, human
TK1 [1] = experiment: Androgen induction of TK1 protein expression in LNCaP cells (immunoblot); conditions: LNCaP cells in hormone depleted medium, 10 nM R1881, immunoblot
Description: FIG. 3. […] Androgen responsive LNCaP cells cultured in hormone depleted medium were treated with 10 nM of the synthetic androgen, R1881, for the indicated times, and TK1 expression was assayed by immunoblot analysis. […] Small hairpins targeting AR were introduced into LNCaP cells infected with TK1, or control uninfected LNCaP cells. Cell proliferation was monitored. Relative proliferation is normalized to the shGFP control.
(§1) Immunoblots were performed as previously described {Boehm, 2005 #51}. The following antibodies were used: TK1 (Abcam, ab57757), AR (Santa Cruz, sc-7305), Flag (Sigma, M2), PDK1 (Becton Dickinson, 611070), p-PDK1 (Becton Dickinson, 558395), AKT (Cell Signaling, 9272), p-AKT1-Thr308 (Cell Signaling, 4056), p-AKT1-Ser473 (Cell Signaling, 9271), p-AKT1-Thr450 (Cell Signaling, 9267), p-AKT1-Tyr326 (Cell Signaling, 2968), Actin (Santa Cruz, sc-47778).
TK1 has been reported to be induced by androgens in the rat prostate. […] To elucidate whether TK1 is sufficient to replace AR signaling in promoting cell proliferation and survival, we silenced AR expression in LNCaP cells by RNAi in the presence or absence of ectopic TK1 expression, and monitored cell death.

[2] = tested on: prostate cancer cell lines; experiment: Effect of TK1 shRNA on proliferation of prostate cancer cell lines (all cultures); conditions: for cells remaining 12 days post infection: all cultures
Text: FIG. 2. TK1 overexpression synergizes with AKT1 to promote hormone independent prostate cancer. a) Androgen independent tumor formation. LHSR-AR cells were infected with the indicated constructs and injected subcutaneously into castrated mice, except where indicated. M-myristoylated; F-Flag tagged. b) AKT1 and TK1 promote nuclear translocation of AR independent of androgen. H&E and immunhistochemical staining for AR in subcutaneous tumor sections derived from LHSR-AR cells infected with the indicated constructs. Staining of androgen dependent GFP tumor is shown as control. Minimum of 3 tumors were stained per sample and representative images are shown. c) TK1 chromosomal amplification in hormone sensitive and refractory tumors. DNA from 16 hormone sensitive (HS) and 23 hormone refractory (HR) human prostate tumors (from FIG. 1b) were hybridized onto SNP arrays and analyzed for TK1 copy number gain (CNG). The number and percentage of tumors with and without amplification are indicated. d) TK1 protein expression in hormone sensitive and refractory tumors. Prostate tumor microarrays containing 73 hormone sensitive (HS) and 11 hormone resistant (HS) tumor cores were analyzed for TK1 protein expression by immunohistochemistry. The number and percentage of tumors negative and positive for TK1 expression are indicated. d) Immunoblot analysis for TK1 expression in the indicated prostate cancer cell lines. Actin was used to control for loading. e) Effect of TK1 suppression on the proliferation of prostate cancer cells. […] Relative cell number is normalized to the shGFP control.
Stable suppression of TK1 and AR were accomplished by using the pLKO.1-puro lentiviral shRNA constructs previously described {Moffat, 2006 #52}. The sequences targeted by the hairpins are as follows: shTK1-3, […] (SEQ ID NO: 1); shTK1-4, […] (SEQ ID NO: 2); shTK1-5, […] (SEQ ID NO: 3); shAR-1, […] […] Viable cells were counted using a Coulter Counter.
(§2) Next, we determined whether suppressing the expression of TK1 in prostate cancer cell lines that overexpress TK1 reverses their ability to proliferate or survive. […]

TK1 [3] = experiment: Suppression of TK1 expression by shRNA in prostate cancer cell lines; conditions: lentiviral shRNA
Description: as §1
Stable suppression of TK1 and AR were accomplished by using the pLKO.1-puro lentiviral shRNA constructs previously described {Moffat, 2006 #52}. The sequences targeted by the hairpins are as follows: shTK1-3, […] (SEQ ID NO: 1); shTK1-4, […] (SEQ ID NO: 2); shTK1-5, […] (SEQ ID NO: 3); shAR-1, […] (SEQ ID NO: 4); shAR-4, […] (SEQ ID NO: 5); shAR-5, […] (SEQ ID NO: 6); shGFP, Experiments were performed in duplicate, in both the presence and absence of 1.5 ug/ml puromycin to monitor infection efficiency. Viable cells were counted using a Coulter Counter.
as §2

C4-2 cells = experiment: Effect of TK1 suppression by shRNA on cell number of prostate cancer cells (viable cells counted with Coulter Counter); conditions: C4-2 cultures, relative to shGFP control
Text: (§3) FIG. 2. TK1 overexpression synergizes with AKT1 to promote hormone independent prostate cancer. a) Androgen independent tumor formation. LHSR-AR cells were infected with the indicated constructs and injected subcutaneously into castrated mice, except where indicated. M-myristoylated; F-Flag tagged. b) AKT1 and TK1 promote nuclear translocation of AR independent of androgen. H&E and immunhistochemical staining for AR in subcutaneous tumor sections derived from LHSR-AR cells infected with the indicated constructs. Staining of androgen dependent GFP tumor is shown as control. Minimum of 3 tumors were stained per sample and representative images are shown. c) TK1 chromosomal amplification in hormone sensitive and refractory tumors. DNA from 16 hormone sensitive (HS) and 23 hormone refractory (HR) human prostate tumors (from FIG. 1b) were hybridized onto SNP arrays and analyzed for TK1 copy number gain (CNG). The number and percentage of tumors with and without amplification are indicated. d) TK1 protein expression in hormone sensitive and refractory tumors. Prostate tumor microarrays containing 73 hormone sensitive (HS) and 11 hormone resistant (HS) tumor cores were analyzed for TK1 protein expression by immunohistochemistry. The number and percentage of tumors negative and positive for TK1 expression are indicated. d) Immunoblot analysis for TK1 expression in the indicated prostate cancer cell lines. Actin was used to control for loading. e) Effect of TK1 suppression on the proliferation of prostate cancer cells. Cells were infected with three different hairpins targeting TK1 and a control hairpin targeting GFP, and cell numbers determined 5 days post infection. Relative cell number is normalized to the shGFP control.
(§4) LHSR-AR {Berger, 2004 #15}, LNCaP {Horoszewicz, 1980 #23}, C4-2 {Wu, 1994 #18}, CL-1 {Patel, 2000 #16}, LNCaP-abl {Culig, 1999 #49} and LAPC4 {Klein, 1997 #34} cells have previously been described. LHSR-AR cells were cultured in PrEGM with growth supplements (Lonza). LNCaP were cultured in RPMI supplemented with 10% fetal bovine serum, 1 mM sodium pyruvate and 10 mM Hepes. C4-2, CL-1 and LNCaP-abl were cultured in phenol red free RMPI supplemented with 10% charcoal stripped fetal bovine serum, 1 mM sodium pyruvate and 10 mM Hepes. LAPC4 cells were cultured in IMDM supplemented with 10% fetal bovine serum and 1 nM R1881.
(§5) Stable suppression of TK1 and AR were accomplished by using the pLKO.1-puro lentiviral shRNA constructs previously described {Moffat, 2006 #52}. The sequences targeted by the hairpins are as follows: shTK1-3, […] […] Viable cells were counted using a Coulter Counter.
as §2

CL-1 cells = experiment: as above; conditions: relative to shGFP control
Text: as §3, §4, §5, §2

Molecule	TK1 protein expression (TK1 [1])	proliferation ([2]; prostate cancer cell lines, 5 days post infection)	suppression of TK1 expression (TK1 [3])	cells remaining 12 days post infection [2]	cell number 5 days post infection (C4-2 cells)	cell number 5 days post infection (CL-1 cells)
C[C@]1(O)CC[C@H]2[C@@H]3CCC4=CC(=O)CCC4=C3C=C[C@@]21C [R1881]	androgen induced	–	–	–	–	–
shTK1-3: pLKO.1-puro lentiviral shRNA targeting TK1 sequence AGACCGTAATTGTGGCTGCAC (SEQ ID NO: 1) (target site or template, no part of the molecule)	–	did not affect proliferation	did not efficiently suppress TK1 expression	–	–	–
shTK1-4: pLKO.1-puro lentiviral shRNA targeting TK1 sequence GGGAAGCCGCCTATACCAAGA (SEQ ID NO: 2) (target site or template, no part of the molecule)	–	–	–	few cells remaining	reduced cell number	did not significantly affect
shTK1-5: pLKO.1-puro lentiviral shRNA targeting TK1 sequence TGTCGGCTCTGCTACTTCAAG (SEQ ID NO: 3) (target site or template, no part of the molecule)	–	–	–	few cells remaining	reduced cell number	did not significantly affect
